Tested on: acne vulgaris
Assay: Open-label prospective human study of topical ALA-PDT in acne vulgaris
Format: in vivo
Conditions: after treatment, amelioration of acne (FIG. 5)
Description: Photodynamic therapy with topical ALA composition as described in Example 1 was tested for the treatment of acne vulgaris, in an open-label prospective human study. 22 subjects with acne on their back were treated at 4 different sites with one of the following at each site: ALA plus red light (ALA-PDT), ALA alone, light alone, and untreated control. Half of the subjects were treated once; half were treated 4 times. 20% topical ALA of Example 1 was applied with 3 hr occlusion, and 150 J/cm^2 broad band light ([…]) was applied to the treated site. Sebum excretion rate and auto-fluorescence from follicular bacteria were measured before, and at 2, 3, 10, and 20 weeks after treatment. […]
Subjects were randomly divided into single treatment group or multiple treatment group. At baseline, clinical evaluations, natural bacterial porphyrin fluorescence photography, and sebum excretion rate (SER) evaluation were performed. […] In both groups, subjects returned one week after treatments for clinical evaluations and at weeks 2, 3, 10 and 20 for clinical, fluorescence, and SER evaluations.
Each subject's acne was visually assessed using an inflammatory acne score modified from that previously described (Burke et al., 1994). […] The numbers of comedo, inflammatory comedo, papules, pustules, nodules and cysts in each test area were recorded. […]

O=C(OOC(=O)c1ccccc1)c1ccccc1 [Benzoyl Peroxide]
time until therapeutic effect occurred: eight to twelve
